Kd data for 101 compounds are collected here from PubChem BioAssay AID1552 (Sanford-Burnham Center for Chemical Genomics, 2009).

The source made the active and inactive calls. How the calls were made is not given here.

The Kd is a measure of binding affinity in units of concentration.

The target of the experiment is Ubiquitin-conjugating enzyme E2 N (Homo sapiens) (UniProt P61088). The experiment in a line: NMR detection of UBE2N ligand binding – biophysical, purified protein (AID 1552). The following applies: NMR binding to purified UBE2N.
Sequence of Ubiquitin-conjugating enzyme E2 N (Homo sapiens) (P61088 whole entry, looked up): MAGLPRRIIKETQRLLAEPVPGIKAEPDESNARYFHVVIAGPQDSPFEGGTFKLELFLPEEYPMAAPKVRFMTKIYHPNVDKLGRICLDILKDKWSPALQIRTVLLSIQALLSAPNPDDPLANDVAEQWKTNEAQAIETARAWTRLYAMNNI
In the case of `Cn1c(=O)cc(O)c2ccccc21`, the Kd is > 4 mM (inactive).

Consider `CN(C)S(=O)(=O)c1ccc(NC=O)cc1`, for which the Kd is > 4 mM (inactive). In the case of `COc1ccc2c(C)cc(=O)oc2c1` it was > 4 mM (inactive); in that of `C=C1CCC(=O)C(C)CCC2C1CC2(C)C` (stereo unspecified), > 4 mM (inactive). The result for `NC(=O)C1CCN(CN2C(=O)c3ccccc3C2=O)CC1` reads > 4 mM (inactive); that for `COc1ccc2c(c1)OC[C@@H](Cc1ccc(OC)c(OC)c1)[C@@H]2O`, > 4 mM (inactive); that for `CSc1nc(-c2ccccc2)ccc1C(N)=O`, > 4 mM (inactive).

With `Cc1nn(C)c2sc(C(=O)O)cc12`, the Kd is > 4 mM (inactive). The result for `O=C(CC1CCCCC1)N1CCN(c2ccccn2)CC1` reads > 4 mM (inactive). `O=C(O)c1[nH]nc2c1COc1ccccc1-2`: the Kd is > 4 mM (inactive). For `COc1cccc(NC(=O)c2ncn[nH]2)c1`, the Kd is > 4 mM (inactive).

Consider `CC12CNCC(C)(CNC1)C2O` (stereo unspecified), for which the Kd was > 4 mM (inactive). In the case of `Cc1nnc2n(c1=O)N=C(c1ccccc1)CS2`, the Kd is > 4 mM (inactive). The result for `Nc1ccc(NC(=O)c2ccco2)c(Cl)c1` reads > 4 mM (inactive); that for `Oc1cccc(N2CCOCC2)c1`, > 4 mM (inactive).

For `O=C(Nn1cnnc1)c1cc2c(s1)CCCCC2`, the Kd is > 4 mM (inactive). Turning to `O=C1C2C3C=CC(C3)C2C(=O)N1c1nccs1` (stereo unspecified), the Kd is > 4 mM (inactive). Regarding `CN1CCn2c1nc(N1CCOCC1)nc2=O`, the Kd is > 4 mM (inactive).

Take `CCC(=O)NC(=S)Nc1ccc(N2CCOCC2)cc1`: the Kd was > 4 mM (inactive).

For `Cc1cc(C(=O)N2CCN(c3ncccn3)CC2)cs1`, the Kd was > 4 mM (inactive). In the case of `O=C1N=C(N2CCOCC2)S/C1=C\c1cccnc1` it was > 4 mM (inactive). The result for `CN(C)S(=O)(=O)c1cccc(N)c1` reads > 4 mM (inactive); that for `CC(=O)OC1CCC23CC1(C)CCC2C(C)(C)CC3OC(C)=O` (stereo unspecified), > 4 mM (inactive). The result for `S=C=NCc1ccccc1` reads > 4 mM (inactive); that for `NC(=O)/C=C/C(=O)Nc1ccccc1`, > 4 mM (inactive); that for `Cc1nn(-c2ccccc2)nc1C(N)=O`, > 4 mM (inactive).

Consider `Cc1cccc(NC(=O)NC(N)=O)c1`, for which the Kd was > 4 mM (inactive). In the case of `CC(=O)O[C@H]1CC[C@]2(C)C3CC[C@@]4(C)C(CC5O[C@@]6(CCC(C)CO6)[C@@H](C)C54)C3CC[C@@H]2C1` (stereo partly specified) it was > 4 mM (inactive).

For the compound `COn1c(=O)c(-c2ccco2)[n+]([O-])c2ccccc21`, the Kd was > 4 mM (inactive). With `COc1ccccc1CNc1nc2nc(C)cc(=O)n2[nH]1`, the Kd was > 4 mM (inactive). In the case of `COC(=O)C[C@@H]1C2(C)C(=O)[C@@H](CC3=C4C=C(OC)O[C@@H](c5ccoc5)[C@]4(C)CCC32)[C@H](O)C1(C)C` (stereo partly specified), the Kd is > 4 mM (inactive). The result for `CN1CN/C(=N\[N+](=O)[O-])N(c2ccccc2)C1` reads > 4 mM (inactive); that for `Cc1ccc(C(=O)N2CC(=O)NC(=O)C2)cc1`, > 4 mM (inactive). The result for `O=C(/C(=N\O)n1cncn1)c1ccccc1Cl` reads > 4 mM (inactive); that for `CC(C)c1c(O)ccc2c1CCC1C(C)(C)CCC[C@]21C` (stereo partly specified), > 4 mM (inactive); that for `CC(=O)OC1CCC2(C)C(=CC=C3C2CCC2(C)C3CCC2C(C)/C=C/C(C)C(C)C)C1(C)C` (stereo unspecified), > 4 mM (inactive).

In the case of `Cc1cc(SCCF)n2ncnc2n1`, the Kd is > 4 mM (inactive). In the case of `COc1ccc(-c2cc(=O)c3c(O)cc(O[C@@H]4O[C@H](CO[C@H]5O[C@H](C)[C@@H](O)[C@H](O)[C@@H]5O)[C@@H](O)[C@H](O)[C@H]4O)cc3o2)cc1O` it was > 4 mM (inactive); in that of `CC(=O)Oc1c(C)c(C)c2c(c1C)CCC(C)(CCCC(C)CCCC(C)CCCC(C)C)O2` (stereo unspecified), > 4 mM (inactive). On to `O=C(O)C1CSC(c2ccc(Cl)cc2)N1` (stereo unspecified), for which the Kd was > 4 mM (inactive).

Regarding `Nc1n[nH]c(=S)n1-c1ccccc1`, the Kd is > 4 mM (inactive). In the case of `Cc1cccn2cc(CNc3ccccc3)nc12` it was > 4 mM (inactive); in that of `O=C(/C=C/c1ccc(O)cc1)c1ccc(O)cc1O`, > 4 mM (inactive). Turning to `Nc1nnc(SCc2cccnc2)s1`, the Kd was > 4 mM (inactive). In the case of `Cc1n[nH]c(C)c1-c1ccccc1C(=O)O` it was > 4 mM (inactive); in that of `CC(=O)NCS(=O)(=O)c1ccc(C)cc1`, > 4 mM (inactive); in that of `CN(C)CCNC(CC(=O)Nc1ccccc1)C(=O)O` (stereo unspecified), > 4 mM (inactive). In the case of `O=C(O)CS(=O)(=O)c1ccccc1[N+](=O)[O-]` it was > 4 mM (inactive); in that of `CC(=O)Nc1ccc(S(=O)(=O)N(C)C)cc1`, > 4 mM (inactive). The result for `O=C1NC(=S)N/C1=C\c1cccnc1` reads > 4 mM (inactive).

Consider `CC(=O)c1sc2nc(N)nn2c1C`, for which the Kd was > 4 mM (inactive). In the case of `CC1=NN(c2ccc(C)cc2)C(=O)C1` it was > 4 mM (inactive); in that of `OCC12COC3c4ccccc4C(OC1)N32` (stereo unspecified), > 4 mM (inactive); in that of `CC(=O)c1ccc(Cc2cnc(N)s2)cc1`, > 4 mM (inactive). For the compound `NC(=O)CC[C@H](N)C(=O)O`, the Kd was > 4 mM (inactive).

As to `OCCNC(=S)Nc1ccccc1`, the Kd is > 4 mM (inactive). Regarding `CCOC(=O)c1c(C)nc2ncccn12`, the Kd is > 4 mM (inactive). `O=C(O)c1ccc(-c2cccs2)s1`: the Kd is > 4 mM (inactive). The result for `O=C1c2ccc(F)cc2C(=O)N1CO` reads > 4 mM (inactive); that for `COC[C@]12CN(C=O)C3[C@@H]4[C@H](OC)C1[C@]3(C1CC3(O)C(OC)C(O)C4(OC(C)=O)C1C3OC(=O)c1ccccc1)[C@@H](OC)C[C@H]2O` (stereo partly specified), > 4 mM (inactive). `O=C(NCc1ccccc1F)c1cccs1`: the Kd was > 4 mM (inactive). The result for `Fc1cccc(F)c1CN1CCN(c2ncccn2)CC1` reads > 4 mM (inactive); that for `Cc1cccc(NC(=O)c2ccc(=O)[nH]n2)c1`, > 4 mM (inactive); that for `Cc1cc(C)nc(/N=C(/N)N2CCC(C(N)=O)CC2)n1`, > 4 mM (inactive).

For the compound `O=C(O)CSCC(=O)Nc1cccc(O)c1`, the Kd is > 4 mM (inactive).

`N#Cc1cnn2c(C(F)(F)F)cc(C(F)(F)F)nc12`: the Kd was > 4 mM (inactive). The result for `Cc1ccc2cc(C(=O)O)ccc2n1` reads > 4 mM (inactive). The result for `Cc1ccccc1NC(=O)CC1SC(N)=NC1=O` (stereo unspecified) reads > 4 mM (inactive); that for `COc1ccc2c(c1OC)C(=O)N(c1ncn[nH]1)C2`, > 4 mM (inactive).

Consider `Cc1cc(C(=O)Nc2ccc3c(c2)OCCO3)c(C)o1`, for which the Kd is > 4 mM (inactive). Regarding `CC(=O)N=c1cccc(NC(C)=O)n1O`, the Kd was > 4 mM (inactive). `O=C1CSC(=Nc2ccccc2)N1`: the Kd is > 4 mM (inactive).

In the case of `CCOC(=O)C1C(C=C(C)C)C1(C)C` (stereo unspecified), the Kd was > 4 mM (inactive). In the case of `NC(=S)N1CCC(c2ccccc2)=N1` it was > 4 mM (inactive). As for `C=C1CCC2[C@](C)(CO)[C@H](O)CC[C@@]2(C)[C@@H]1C/C=C1/C(=O)OC[C@H]1O` (stereo partly specified), the Kd was > 4 mM (inactive).

`CC(=O)c1cnc(Nc2nc(C)c3ccccc3n2)nc1C`: the Kd is > 4 mM (inactive). In the case of `Nc1ccc(N2CCOCC2)cc1`, the Kd is > 4 mM (inactive). The result for `NCc1ccc(N2CCOCC2)cc1` reads > 4 mM (inactive); that for `C=CC(C1=CC(=O)C(OC)=CC1=O)c1ccccc1` (stereo unspecified), > 4 mM (inactive). `Cc1nc2nc(Cc3ccccc3)nn2c(C)c1Cl`: the Kd is > 4 mM (inactive). On to `CC1=CC(=O)C2C(C)(C)CCC[C@]2(C)[C@@]1(O)CCc1ccoc1` (stereo partly specified), for which the Kd is > 4 mM (inactive). The result for `Cc1nnc(Nc2cccnc2)[nH]c1=O` reads > 4 mM (inactive); that for `Cc1cc(SCC(=O)c2ccccc2)nc(=O)[nH]1`, > 4 mM (inactive); that for `Cc1occc1C(=O)NCc1ccccc1F`, > 4 mM (inactive). In the case of `CSc1cccc(NC(=O)c2c(Cl)cnn2C)c1` it was > 4 mM (inactive). Take `NC1=C([N+](=O)[O-])C(=O)c2ccccc21`: the Kd was > 4 mM (inactive).

Regarding `CN(C)C(=O)c1ccc(-c2n[nH]c(=O)c3ccccc23)cc1`, the Kd was > 4 mM (inactive).

`NC(=O)Cc1nc2ccccc2[nH]1`: the Kd was > 4 mM (inactive). For the compound `O=C(NCc1cccc(Cl)c1)c1cnccn1`, the Kd is > 4 mM (inactive).

As to `COCC(=O)Nc1cccc2ccccc12`, the Kd is > 4 mM (inactive). For the compound `O=C1CCC(=O)N1c1ccc(F)cc1`, the Kd was > 4 mM (inactive). The result for `CC(=O)OC[C@H]1O[C@@H](Oc2cc(OC(C)=O)c3c(=O)cc(-c4ccc(OC(C)=O)cc4)oc3c2)[C@H](OC(C)=O)[C@@H](OC(C)=O)[C@@H]1OC(C)=O` reads > 4 mM (inactive); that for `O=C(O)c1cc(F)cc2c1OCOC2`, > 4 mM (inactive); that for `Cc1nn(C)c(Cl)c1C(O)c1c(C)nn(C)c1Cl`, > 4 mM (inactive). As for `COc1cc(C)c2c(c1C=O)Oc1c(c(C)c(O)c3c1C(O)OC3=O)OC2=O` (stereo unspecified), the Kd was > 4 mM (inactive). The result for `CC1=CC2C(CC1=O)C(C)=CCC2C(C)C` (stereo unspecified) reads > 4 mM (inactive). With `Nc1ccc(-n2cccn2)cc1`, the Kd was > 4 mM (inactive). For `OC1CC(c2ccccc2)NC2(CCCC2)C1` (stereo unspecified), the Kd was > 4 mM (inactive).

In the case of `Nc1ccc2[nH]ncc2c1`, the Kd is > 4 mM (inactive). With `NC1CCN(Cc2ccccc2)CC1`, the Kd is > 4 mM (inactive). Take `COc1c(O)cc2oc3cc(O)c(CC=C(C)C)c(O)c3c(=O)c2c1CC=C(C)C`: the Kd is > 4 mM (inactive).
